Assay results as given in the supplement of paper PMC10307832.

How the values were obtained:
Experiment in all cases: relative viability (nuclei count vs DMSO), 5 days (fraction); higher = more cells survive
Venetoclax + Decitabine = compound: CC1(C)CCC(CN2CCN(c3ccc(C(=O)NS(=O)(=O)c4ccc(NCC5CCOCC5)c([N+](=O)[O-])c4)c(Oc4cnc5[nH]ccc5c4)c3)CC2)=C(c2ccc(Cl)cc2)C1 [Venetoclax] + Nc1ncn([C@H]2C[C@H](O)[C@@H](CO)O2)c(=O)n1 [Decitabine] (partner 2 µM)
In short: (§1)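 Medians of duplicate plates are given as relative viability. That measure is the nuclei count in treated wells divided by the count in vehicle wells. Counts were taken on 4× images of lung cancer cell lines in 1536-well plates, 5 days after pin-tool dosing the day after seeding with one drug alone or a fixed anchor-drug dose plus five library-drug doses (not always all listed) in √10 steps.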

Venetoclax + Vorinostat = compound: CC1(C)CCC(CN2CCN(c3ccc(C(=O)NS(=O)(=O)c4ccc(NCC5CCOCC5)c([N+](=O)[O-])c4)c(Oc4cnc5[nH]ccc5c4)c3)CC2)=C(c2ccc(Cl)cc2)C1 [Venetoclax] + O=C(CCCCCCC(=O)Nc1ccccc1)NO [Vorinostat] (partner 1 µM)
In short: as §1

Selumetinib + Lapatinib = compound: Cn1cnc2c(F)c(Nc3ccc(Br)cc3Cl)c(C(=O)NOCCO)cc21 [Selumetinib] + CS(=O)(=O)CCNCc1ccc(-c2ccc3ncnc(Nc4ccc(OCc5cccc(F)c5)c(Cl)c4)c3c2)o1 [Lapatinib] (partner 2 µM)
In short: as §1

Selumetinib + Alpelisib = compound: Cn1cnc2c(F)c(Nc3ccc(Br)cc3Cl)c(C(=O)NOCCO)cc21 [Selumetinib] + Cc1nc(NC(=O)N2CCC[C@H]2C(N)=O)sc1-c1ccnc(C(C)(C)C(F)(F)F)c1 [Alpelisib] (partner 2 µM)
In short: as §1

LXF-289
relative viability (Venetoclax + Decitabine; first compound 0.01 µM): 0.35
relative viability (Venetoclax + Decitabine; first compound 0.03162 µM): 0.37
relative viability (Venetoclax + Decitabine; first compound 0.1 µM): 0.385
relative viability (Venetoclax + Decitabine; first compound 0.3162 µM): 0.387
relative viability (Venetoclax + Decitabine; first compound 1 µM): 0.4
relative viability (Venetoclax + Vorinostat; first compound 0.01 µM): 0.885
relative viability (Venetoclax + Vorinostat; first compound 0.03162 µM): 0.791
relative viability (Venetoclax + Vorinostat; first compound 0.1 µM): 0.746
relative viability (Venetoclax + Vorinostat; first compound 0.3162 µM): 0.751
relative viability (Venetoclax + Vorinostat; first compound 1 µM): 0.734
relative viability (Selumetinib + Lapatinib; first compound 0.02 µM): 0.874
relative viability (Selumetinib + Lapatinib; first compound 0.06325 µM): 0.839
relative viability (Selumetinib + Lapatinib; first compound 0.2 µM): 0.761
relative viability (Selumetinib + Lapatinib; first compound 0.6325 µM): 0.758
relative viability (Selumetinib + Alpelisib; first compound 0.02 µM): 0.928
relative viability (Selumetinib + Alpelisib; first compound 0.06325 µM): 0.854
relative viability (Selumetinib + Alpelisib; first compound 0.2 µM): 0.841
relative viability (Selumetinib + Alpelisib; first compound 0.6325 µM): 0.762

NCI-H23
relative viability (Venetoclax + Decitabine; first compound 0.01 µM): 0.322
relative viability (Venetoclax + Decitabine; first compound 0.03162 µM): 0.298
relative viability (Venetoclax + Decitabine; first compound 0.1 µM): 0.337
relative viability (Venetoclax + Decitabine; first compound 0.3162 µM): 0.316
relative viability (Venetoclax + Decitabine; first compound 1 µM): 0.317
relative viability (Venetoclax + Vorinostat; first compound 0.01 µM): 0.565
relative viability (Venetoclax + Vorinostat; first compound 0.03162 µM): 0.752
relative viability (Venetoclax + Vorinostat; first compound 0.1 µM): 0.54
relative viability (Venetoclax + Vorinostat; first compound 0.3162 µM): 0.619
relative viability (Venetoclax + Vorinostat; first compound 1 µM): 0.521
relative viability (Selumetinib + Lapatinib; first compound 0.02 µM): 1.24
relative viability (Selumetinib + Lapatinib; first compound 0.06325 µM): 1.02
relative viability (Selumetinib + Lapatinib; first compound 0.2 µM): 0.825
relative viability (Selumetinib + Lapatinib; first compound 0.6325 µM): 0.957
relative viability (Selumetinib + Alpelisib; first compound 0.02 µM): 0.628
relative viability (Selumetinib + Alpelisib; first compound 0.06325 µM): 0.589
relative viability (Selumetinib + Alpelisib; first compound 0.2 µM): 0.438
relative viability (Selumetinib + Alpelisib; first compound 0.6325 µM): 0.358

NCI-H441
relative viability (Venetoclax + Decitabine; first compound 0.01 µM): 0.235
relative viability (Venetoclax + Decitabine; first compound 0.03162 µM): 0.219
relative viability (Venetoclax + Decitabine; first compound 0.1 µM): 0.208
relative viability (Venetoclax + Decitabine; first compound 0.3162 µM): 0.23
relative viability (Venetoclax + Decitabine; first compound 1 µM): 0.24
relative viability (Venetoclax + Vorinostat; first compound 0.01 µM): 0.78
relative viability (Venetoclax + Vorinostat; first compound 0.03162 µM): 0.762
relative viability (Venetoclax + Vorinostat; first compound 0.1 µM): 1.02
relative viability (Venetoclax + Vorinostat; first compound 0.3162 µM): 0.868
relative viability (Venetoclax + Vorinostat; first compound 1 µM): 0.743
relative viability (Selumetinib + Alpelisib; first compound 0.02 µM): 0.775
relative viability (Selumetinib + Alpelisib; first compound 0.06325 µM): 0.754
relative viability (Selumetinib + Alpelisib; first compound 0.2 µM): 0.656
relative viability (Selumetinib + Alpelisib; first compound 0.6325 µM): 0.647

NCI-H522
relative viability (Venetoclax + Decitabine; first compound 0.01 µM): 0.657
relative viability (Venetoclax + Decitabine; first compound 0.03162 µM): 0.694
relative viability (Venetoclax + Decitabine; first compound 0.1 µM): 0.617
relative viability (Venetoclax + Decitabine; first compound 0.3162 µM): 0.605
relative viability (Venetoclax + Decitabine; first compound 1 µM): 0.677
relative viability (Venetoclax + Vorinostat; first compound 0.01 µM): 1
relative viability (Venetoclax + Vorinostat; first compound 0.03162 µM): 0.849
relative viability (Venetoclax + Vorinostat; first compound 0.1 µM): 0.96
relative viability (Venetoclax + Vorinostat; first compound 0.3162 µM): 0.839
relative viability (Venetoclax + Vorinostat; first compound 1 µM): 0.896

NCI-H1299
relative viability (Selumetinib + Lapatinib; first compound 0.02 µM): 1.06
relative viability (Selumetinib + Lapatinib; first compound 0.06325 µM): 0.959
relative viability (Selumetinib + Lapatinib; first compound 0.2 µM): 1.02
relative viability (Selumetinib + Lapatinib; first compound 0.6325 µM): 0.812
relative viability (Selumetinib + Alpelisib; first compound 0.02 µM): 1.04
relative viability (Selumetinib + Alpelisib; first compound 0.06325 µM): 1.03
relative viability (Selumetinib + Alpelisib; first compound 0.2 µM): 1.03
relative viability (Selumetinib + Alpelisib; first compound 0.6325 µM): 0.697

NCI-H1563
relative viability (Selumetinib + Lapatinib; first compound 0.02 µM): 0.891
relative viability (Selumetinib + Lapatinib; first compound 0.06325 µM): 0.851
relative viability (Selumetinib + Lapatinib; first compound 0.2 µM): 0.944
relative viability (Selumetinib + Lapatinib; first compound 0.6325 µM): 0.911
relative viability (Selumetinib + Alpelisib; first compound 0.02 µM): 0.969
relative viability (Selumetinib + Alpelisib; first compound 0.06325 µM): 0.838
relative viability (Selumetinib + Alpelisib; first compound 0.2 µM): 0.964
relative viability (Selumetinib + Alpelisib; first compound 0.6325 µM): 0.877

NCI-H1648
relative viability (Venetoclax + Decitabine; first compound 0.03162 µM): 0.487
relative viability (Venetoclax + Decitabine; first compound 0.1 µM): 0.418
relative viability (Venetoclax + Decitabine; first compound 0.3162 µM): 0.634
relative viability (Venetoclax + Decitabine; first compound 1 µM): 0.491
relative viability (Venetoclax + Vorinostat; first compound 0.03162 µM): 0.397
relative viability (Venetoclax + Vorinostat; first compound 0.1 µM): 0.494
relative viability (Venetoclax + Vorinostat; first compound 0.3162 µM): 0.451
relative viability (Venetoclax + Vorinostat; first compound 1 µM): 0.477

NCI-H1650
relative viability (Venetoclax + Decitabine; first compound 0.01 µM): 0.545
relative viability (Venetoclax + Decitabine; first compound 0.03162 µM): 0.422
relative viability (Venetoclax + Decitabine; first compound 0.1 µM): 0.408
relative viability (Venetoclax + Decitabine; first compound 0.3162 µM): 0.407
relative viability (Venetoclax + Decitabine; first compound 1 µM): 0.363
relative viability (Venetoclax + Vorinostat; first compound 0.01 µM): 0.618
relative viability (Venetoclax + Vorinostat; first compound 0.03162 µM): 0.606
relative viability (Venetoclax + Vorinostat; first compound 0.1 µM): 0.567
relative viability (Venetoclax + Vorinostat; first compound 0.3162 µM): 0.553
relative viability (Venetoclax + Vorinostat; first compound 1 µM): 0.527
relative viability (Selumetinib + Lapatinib; first compound 0.02 µM): 0.704
relative viability (Selumetinib + Lapatinib; first compound 0.06325 µM): 0.639
relative viability (Selumetinib + Lapatinib; first compound 0.2 µM): 0.704
relative viability (Selumetinib + Lapatinib; first compound 0.6325 µM): 0.721

NCI-H1703
relative viability (Selumetinib + Lapatinib; first compound 0.02 µM): 1.19
relative viability (Selumetinib + Lapatinib; first compound 0.06325 µM): 1.17
relative viability (Selumetinib + Lapatinib; first compound 0.2 µM): 1.17
relative viability (Selumetinib + Lapatinib; first compound 0.6325 µM): 0.994
relative viability (Selumetinib + Alpelisib; first compound 0.02 µM): 0.368
relative viability (Selumetinib + Alpelisib; first compound 0.06325 µM): 0.25
relative viability (Selumetinib + Alpelisib; first compound 0.2 µM): 0.327
relative viability (Selumetinib + Alpelisib; first compound 0.6325 µM): 0.314

NCI-H1792
relative viability (Venetoclax + Decitabine; first compound 0.01 µM): 0.522
relative viability (Venetoclax + Decitabine; first compound 0.03162 µM): 0.506
relative viability (Venetoclax + Decitabine; first compound 0.1 µM): 0.468
relative viability (Venetoclax + Decitabine; first compound 0.3162 µM): 0.502
relative viability (Venetoclax + Decitabine; first compound 1 µM): 0.463
relative viability (Selumetinib + Lapatinib; first compound 0.02 µM): 0.881
relative viability (Selumetinib + Lapatinib; first compound 0.06325 µM): 0.79
relative viability (Selumetinib + Lapatinib; first compound 0.2 µM): 0.683
relative viability (Selumetinib + Lapatinib; first compound 0.6325 µM): 0.629
relative viability (Selumetinib + Alpelisib; first compound 0.02 µM): 0.684
relative viability (Selumetinib + Alpelisib; first compound 0.06325 µM): 0.603
relative viability (Selumetinib + Alpelisib; first compound 0.2 µM): 0.485
relative viability (Selumetinib + Alpelisib; first compound 0.6325 µM): 0.386

NCI-H2228
relative viability (Venetoclax + Vorinostat; first compound 0.01 µM): 0.915
relative viability (Venetoclax + Vorinostat; first compound 0.03162 µM): 0.623
relative viability (Venetoclax + Vorinostat; first compound 0.1 µM): 0.799
relative viability (Venetoclax + Vorinostat; first compound 0.3162 µM): 0.461
relative viability (Venetoclax + Vorinostat; first compound 1 µM): 0.436
relative viability (Selumetinib + Lapatinib; first compound 0.02 µM): 1.01
relative viability (Selumetinib + Lapatinib; first compound 0.06325 µM): 0.765
relative viability (Selumetinib + Lapatinib; first compound 0.2 µM): 0.852
relative viability (Selumetinib + Lapatinib; first compound 0.6325 µM): 0.695
relative viability (Selumetinib + Alpelisib; first compound 0.02 µM): 0.72
relative viability (Selumetinib + Alpelisib; first compound 0.06325 µM): 0.608
relative viability (Selumetinib + Alpelisib; first compound 0.2 µM): 0.416
relative viability (Selumetinib + Alpelisib; first compound 0.6325 µM): 0.411

NCI-H2342
relative viability (Venetoclax + Decitabine; first compound 0.01 µM): 0.777
relative viability (Venetoclax + Decitabine; first compound 0.03162 µM): 0.735
relative viability (Venetoclax + Decitabine; first compound 0.1 µM): 0.713
relative viability (Venetoclax + Decitabine; first compound 0.3162 µM): 0.764
relative viability (Venetoclax + Decitabine; first compound 1 µM): 0.693
relative viability (Venetoclax + Vorinostat; first compound 0.01 µM): 0.667
relative viability (Venetoclax + Vorinostat; first compound 0.03162 µM): 0.823
relative viability (Venetoclax + Vorinostat; first compound 0.1 µM): 0.739
relative viability (Venetoclax + Vorinostat; first compound 0.3162 µM): 0.683
relative viability (Venetoclax + Vorinostat; first compound 1 µM): 0.802

SW 900
relative viability (Venetoclax + Decitabine; first compound 0.01 µM): 0.455
relative viability (Venetoclax + Decitabine; first compound 0.03162 µM): 0.444
relative viability (Venetoclax + Decitabine; first compound 0.1 µM): 0.356
relative viability (Venetoclax + Decitabine; first compound 0.3162 µM): 0.405
relative viability (Venetoclax + Decitabine; first compound 1 µM): 0.39
relative viability (Venetoclax + Vorinostat; first compound 0.01 µM): 0.485
relative viability (Venetoclax + Vorinostat; first compound 0.03162 µM): 0.663
relative viability (Venetoclax + Vorinostat; first compound 0.1 µM): 0.545
relative viability (Venetoclax + Vorinostat; first compound 0.3162 µM): 0.617
relative viability (Venetoclax + Vorinostat; first compound 1 µM): 0.486
